Data: ChEMBL document CHEMBL1151498, “Synthesis and biological evaluation of 23-oxa-, 23-thia- and 23-oxa-24-oxo-1,25-dihydroxyvitamin D3” (1993)

Legend:
HL-60 [1] = test: Compound was tested to induce differentiation of human promyeloid leukemia cells (HL-60); assay type: functional
[2] = molecular target: T1, Vitamin D3 receptor (Homo sapiens) (UniProt P11473); test: Compound was tested to assess the relative affinity for the intestinal mucosal vitaminD receptor
T1 sequence (whole entry): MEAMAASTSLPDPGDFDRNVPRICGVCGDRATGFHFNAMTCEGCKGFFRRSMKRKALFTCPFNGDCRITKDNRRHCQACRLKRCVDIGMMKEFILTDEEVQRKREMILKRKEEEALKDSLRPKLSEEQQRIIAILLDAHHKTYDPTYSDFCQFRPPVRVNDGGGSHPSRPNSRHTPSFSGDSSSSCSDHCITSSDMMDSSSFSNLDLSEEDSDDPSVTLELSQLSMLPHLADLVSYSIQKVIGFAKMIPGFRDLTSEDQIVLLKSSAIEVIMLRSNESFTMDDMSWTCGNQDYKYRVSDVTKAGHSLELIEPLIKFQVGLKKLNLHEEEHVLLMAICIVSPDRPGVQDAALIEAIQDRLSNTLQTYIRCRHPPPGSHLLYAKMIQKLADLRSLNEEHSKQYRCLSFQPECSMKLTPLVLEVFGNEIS

HL-60 [3] = test: Ability to induce differentiation of human promyeloid leukemia cells (HL-60); assay type: functional

| Relative affinity [2] | SMILES | Relative activity (HL-60 [1]) | Relative activity (HL-60 [3]) |
| --- | --- | --- | --- |
| 13 | C=C1/C(=C\C=C2/CCC[C@]3(C)[C@@H]([C@H](C)CSCC(C)(C)O)CC[C@@H]23)C[C@@H](O)C[C@@H]1O | 29 | – |
| 2 | C=C1/C(=C\C=C2/CCC[C@]3(C)[C@@H]([C@H](C)COCC(C)(C)O)CC[C@@H]23)C[C@@H](O)C[C@@H]1O | – | 9 |
| 26 | C=C1/C(=C\C=C2/CCC[C@]3(C)[C@@H]([C@H](C)COC(=O)C(C)(C)O)CC[C@@H]23)C[C@@H](O)C[C@@H]1O | 6 | – |
